Measurements published in patent US8299048B2, “Hexahydrocyclopentyl[f]indazole sulfonamides and derivatives thereof as selective glucocorticoid receptor modulators” (Merck Sharp & Dohme Corp., priority 2008, dated 2012).
pEC50: −log10 of the molar value.

Tests used:
human GR [1] = target: T1, human GR (Homo sapiens, UniProt P04150); assay: Trans-Activation Modulation of Glucocorticoid Receptor (GRAMMER), MMTV-LUC reporter, agonist mode; assay type: cell-based; parameters: endogenous in cells; conditions: for Emax: A549, A549 cells, maximum activity, read-out: Transactivation A549 Cells GRAMMER Emax; for pEC50: A549 cells, inflection point, read-out: Transactivation A549 Cells GRAMMER IP
T1 sequence (P04150 1-777): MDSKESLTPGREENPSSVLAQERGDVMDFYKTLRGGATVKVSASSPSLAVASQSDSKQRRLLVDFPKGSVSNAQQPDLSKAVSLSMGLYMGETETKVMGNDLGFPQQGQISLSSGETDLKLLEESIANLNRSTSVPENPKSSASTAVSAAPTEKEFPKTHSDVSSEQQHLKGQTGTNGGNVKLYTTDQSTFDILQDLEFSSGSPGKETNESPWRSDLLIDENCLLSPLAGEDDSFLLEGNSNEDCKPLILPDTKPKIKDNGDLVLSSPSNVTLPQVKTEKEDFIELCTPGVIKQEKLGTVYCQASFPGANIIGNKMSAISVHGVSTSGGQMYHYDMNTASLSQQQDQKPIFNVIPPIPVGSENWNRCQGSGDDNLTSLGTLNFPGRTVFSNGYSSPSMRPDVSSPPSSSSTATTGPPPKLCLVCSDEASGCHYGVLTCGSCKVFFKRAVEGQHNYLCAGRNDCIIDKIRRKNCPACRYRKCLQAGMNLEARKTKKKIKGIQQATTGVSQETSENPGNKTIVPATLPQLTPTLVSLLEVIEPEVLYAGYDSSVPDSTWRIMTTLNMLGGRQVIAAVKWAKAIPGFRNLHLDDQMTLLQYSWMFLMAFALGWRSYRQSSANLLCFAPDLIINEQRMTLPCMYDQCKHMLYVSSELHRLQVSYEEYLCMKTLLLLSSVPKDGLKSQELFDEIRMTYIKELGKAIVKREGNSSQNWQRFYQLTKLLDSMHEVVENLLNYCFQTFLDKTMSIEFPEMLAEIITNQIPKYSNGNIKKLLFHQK
Procedure, shortened: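 Readout is luciferase from a modified MMTV LTR promoter after 24 h compound exposure alongside 10 nM dexamethasone (100% activity reference), DMSO ≤1%.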

human GR [2] = target: T1, human GR; assay: Transrepression Assay (GITAR), TNFα-β-lactamase reporter in U937 cells; assay type: cell-based; parameters: U937 cells contain an endogenous glucocorticoid receptor (GR); endogenous in cells; host or cells: U937 cells stably transfected with the TNF-alpha promoter/beta-lactamase reporter; conditions: for GITAR > GRAMM % SEP: GITAR Emax minus GRAMMER Emax; for pEC50: U937 cells, inflection point, read-out: Transrepression U937 Cells GITAR IP
Procedure, shortened: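 Stable TNF-α-promoter/β-lactamase U937 line, endogenous GR; 50,000 cells/well. Cmpd 30–45 min 37 °C → PMA 5 ng/ml + LPS 100 ng/ml final, 37 °C ~18 hr → CCF2-AM 70–90 min RT. 100 nM dex = 100%.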

[3] = U-937, U937 cells, maximum activity, read-out: Transrepression U937 Cells GITAR Emax
[4] = U-937, activity repressed by 100 nM dexamethasone alone set as 100%, read-out: maximal activity in the transrepression (GITAR) assay

| SMILES | Emax (human GR [1]) | pEC50 (human GR [1]) | GITAR > GRAMM % SEP (human GR [2]) | pEC50 (human GR [2]) | Emax (human GR [2]; [3]) | Emax (human GR [2]; [4]) |
| --- | --- | --- | --- | --- | --- | --- |
| C[C@]12Cc3cnn(-c4ccc(F)cc4)c3C=C1CC[C@@H]2CN(Cc1cccnn1)S(=O)(=O)CC(F)(F)F [Example 132, 2,2,2-trifluoro-N-{[(4αR,5S)-1-(4-fluorophenyl)-4α-methyl-1,4,4α,5,6,7-hexahydrocyclopenta[f]indazol-5-yl]methyl}-N-(pyridazin-3-ylmethyl)ethanesulfonamide] | 23.2% | 6.38 | 50.8% | 6.10 | 74% | > 5% |
| C[C@]12Cc3cnn(-c4ccccc4)c3C=C1CC[C@@H]2CN(CCc1ccccn1)S(=O)(=O)Cc1cccnc1 [Example 140, N-{[(4αR,5S)-4α-methyl-1-phenyl-1,4,4α,5,6,7-hexahydrocyclopenta[f]indazol-5-yl]methyl}-1-pyridin-3-yl-N-(2-pyridin-2-ylethyl)methanesulfonamide] | 21.3% | 6.15 |  | 5.80 | 37% | > 5% |
| CC(=O)Nc1ccc(S(=O)(=O)N(CC2CC2)C[C@H]2CCC3=Cc4c(cnn4-c4ccc(F)cc4)C[C@@]32C)cc1 [Example 6, N-{4-[((cyclopropylmethyl){[(4αR,5S)-1-(4-fluorophenyl)-4α-methyl-1,4,4α,5,6,7-hexahydrocyclopenta[f]indazol-5-yl]methyl}amino)sulfonyl]phenyl}acetamide] | 13% | 6.40 | 36.0% | 6.00 | 49% | > 5% |
| CCCCCCCCS(=O)(=O)N(CCc1ccccc1F)C[C@H]1CCC2=Cc3c(cnn3-c3ccc(F)cc3)C[C@@]21C [Example 104, N-[2-(2-fluorophenyl)ethyl]-N-{[(4αR,5S)-1-(4-fluorophenyl)-4α-methyl-1,4,4α,5,6,7-hexahydrocyclopenta[f]indazol-5-yl]methyl}octane-1-sulfonamide] | 9.2% | 6.59 | 1.0% | 6.81 | 10.2% | > 5% |
| C[C@]12Cc3cnn(-c4ccc(F)cc4)c3C=C1CC[C@@H]2CN(CC1CCCO1)S(=O)(=O)Cc1cccc(C(F)(F)F)c1 (stereo partly drawn) [Example 110, N-{[(4αR,5S)-1-(4-fluorophenyl)-4α-methyl-1,4,4α,5,6,7-hexahydrocyclopenta[f]indazol-5-yl]methyl}-N-(tetrahydrofuran-2-ylmethyl)-1-[3-(trifluoromethyl)phenyl]methanesulfonamide] | 4.9% | 5.96 | 21.3% | 6.20 | 26.2% | > 5% |
| C[C@]12Cc3cnn(-c4ccc(F)cc4)c3C=C1CC[C@@H]2CN(CCc1ccccc1F)S(=O)(=O)Cc1ccccc1C(F)(F)F [Example 108, N-[2-(2-fluorophenyl)ethyl]-N-{[(4αR,5S)-1-(4-fluorophenyl)-4α-methyl-1,4,4α,5,6,7-hexahydrocyclopenta[f]indazol-5-yl]methyl}-1-[2-(trifluoromethyl)phenyl]methanesulfonamide] | 46% | 6.28 | 24.6% | 6.73 | 70.5% | > 5% |
